The results in this text go back to US7572799B2, “Pyrazolo[4,3-d]pyrimidines as Phosphodiesterase Inhibitors” (Pfizer Inc, priority 2003, dated 2009).

For this assay, the target named is PDE-5 (UniProt O76074). Briefly: In vitro PDE inhibitory activity against PDE5 (batch method or scintillation proximity assay). The conditions noted are these: representative compounds. Type of assay: biochemical, human. The source says: The compounds of the invention are inhibitors of cyclic guanylate monophosphate (cGMP)-specific phosphodiesterase type 5 (PDE-5 inhibitors).
The required PDE enzymes can be isolated from a variety of sources, including human corpus cavernosum, human and rabbit platelets, human cardiac ventricle, human skeletal muscle and bovine retina, essentially by a modification of the method of Thompson, W J et al.; Biochemistry 18(23), 5228-5237, 1979, as described by Ballard S A et al.; J. Urology 159(6), 2164-2171, 1998. In particular, cGMP-specific PDE5 and cGMP-inhibited cAMP PDE3 can be obtained from human corpus cavernosum tissue, human platelets or rabbit platelets; cGMP-stimulated PDE2 was obtained from human corpus cavernosum; calcium/calmodulin (Ca/CAM)-dependent PDE1 from human cardiac ventricle; cAMP-specific PDE4 from human skeletal muscle; and photoreceptor PDE6 from bovine retina. Phosphodiesterases 7-11 can be generated from full length human recombinant clones transfected into SF9 cells.
Assays can be performed either using a modification of the “batch”method of Thompson W J and Appleman M M; Biochemistry 10(2), 311-316, 1971, essentially as described by Ballard S A et al.; J. Urology 159(6), 2164-2171, 1998, or using a scintillation proximity assay for the direct detection of [^3H]-labelled AMP/GMP using a modification of the protocol described by Amersham plc under product code TRKQ7090/7100. In summary, for the scintillation proximity assay the effect of PDE inhibitors was investigated by assaying a fixed amount of enzyme in the presence of varying inhibitor concentrations and low substrate, (cGMP or cAMP in a 3:1 ratio unlabelled to [^3H]-labeled at a concentration of ˜⅓ Km, or less) such that IC50≅Ki. The final assay volume was made up to 100 μl with assay buffer [20 mM Tris-HCl pH 7.4, 5 mM MgCl2, 1 mg/ml bovine serum albumin]. Reactions were initiated with enzyme, incubated for 30-60 min at 30° C. to give <30% substrate turnover and terminated with 50 μl yttrium silicate SPA beads (containing 3 mM of the respective unlabelled cyclic nucleotide for PDEs 9 and 11).

Like-named read-outs stand apart in the source and are kept apart here.

Regarding `CCN(C)c1nc(Nc2cc(C)ccn2)c2c(n1)c(C(=O)O)nn2C[C@@H](C)OC` [Example 65], the IC50 (read-out: IC50) stood at 25 nM.

Take `CCN(C)c1nc(Nc2cc(C)ccn2)c2c(n1)c(C(=O)NS(C)(=O)=O)nn2CCOCC(F)(F)F` [Example 178, 5-[Ethyl(methyl)amino]-7-[(4-methylpyridin-2-yl)amino]-N-(methylsulfonyl)-1-[2-(2,2,2-trifluoroethoxy)ethyl]-1H-pyrazolo[4,3-]pyrimidine-3-carboxamide]: where the note is “read-out: IC50”, the IC50 is 2.21 nM.

The compound `CCOCCn1nc(C(=O)O)c2nc(N(C)C)nc(NC3CC3)c21` [Example 35] gave an IC50 of 100 nM.

In the case of `CCNc1nc(Nc2cc(C)ccn2)c2c(n1)c(C(=O)O)nn2CCOC(C)C` [Example 63], the IC50 (read-out: IC50) is 4.58 nM.

With `CCOCCn1nc(C(=O)O)c2nc(N3CCCC3)nc(Nc3cc(C)ccn3)c21` [Example 134, 1-(2-Ethoxyethyl)-7-[(4-methylpyridin-2-yl)amino]-5-pyrrolidin-1-yl-1H-pyrazolo[4,3-d]pyrimidine-3-carboxylic acid], for the setting “read-out: IC50”, the IC50 stood at 5.02 nM.

Consider `CCCOCCn1nc(C(=O)O)c2nc(N(C)C(C)C)nc(Nc3cc(C)ccn3)c21` [Example 19], for which, under “read-out: IC50”, the IC50 is 2.43 nM.

As for `Cc1cc(Nc2nc(N(C)C(C)C)nc3c(C(=O)O)nn(CCOCC(F)(F)F)c23)ccc1F` [Example 139], where the note is “read-out: IC50”, the concentration for half-maximal inhibition (IC50) came to 0.071 nM.

Turning to `CCOCCn1nc(C(=O)O)c2nc(N(C)C(C)CC)nc(Nc3cc(C)ccn3)c21` (stereo not drawn) [Example 50], the concentration for half-maximal inhibition (IC50) (read-out: IC50) is 1.66 nM.

As for `CCOCCn1nc(C(=O)OC)c2nc(N3CCN[C@H](C)C3)nc(Nc3cc(C)ccn3)c21` [Example 3], the IC50 (read-out: IC50) came out at 5.01 nM.

On to `CCOCCn1nc(C(=O)OC)c2nc(N(C)CC)nc(Nc3ccc(F)c(C)c3)c21` [Example 116, Methyl 1-(2-ethoxyethyl)-5-[ethyl(methyl)amino]-7-[(4-fluoro-3-methylphenyl)amino]-1H-pyrazolo[4,3-d]pyrimidine-3-carboxylate], for which the IC50 (read-out: IC50) was determined as 0.032 nM.

Turning to `CCOCCn1nc(C(=O)O)c2nc(N3CC[C@@H](OC)C3)nc(Nc3cc(C)ccn3)c21` [Example 13], for the setting “read-out: IC50”, the IC50 came out at 1.46 nM.

For `CCOCCn1nc(C(=O)O)c2nc(N(C)C(C)C)nc(Nc3ccccc3)c21` [Example 95], under “read-out: IC50”, the IC50 worked out at 9.11 nM.

As for `CCOCCn1nc(C(=O)NS(C)(=O)=O)c2nc(N(C)CC)nc(Nc3cc(CO)ccn3)c21` [Example 153], the IC50 (read-out: IC50) was determined as 0.398 nM.

`CCOCCn1nc(C(=O)O)c2nc(N(C)C(C)C)nc(Nc3ccc(F)cn3)c21` [Example 81, 1-(2-Ethoxyethyl)-7-(5-fluoropyridin-2-ylamino)-5-(N-isopropyl-N-methylamino)-1H-pyrazolo[4,3-d]pyrimidine-3-carboxylic acid]: the IC50 (read-out: IC50) is 16.7 nM.

For `CCOCCn1nc(C(=O)O)c2nc(N(CC)CCOC)nc(Nc3cc(C)ccn3)c21` [Example 52], under “read-out: IC50”, the IC50 was determined as 3.4 nM.

Consider `Cc1ccnc(Nc2nc(N3CCCC3C)nc3c(C(=O)O)nn(CCOCC(F)(F)F)c23)c1` (stereo not drawn) [Example 129, 7-[(4-Methylpyridin-2-yl)amino]-5-(2-methylpyrrolidin-1-yl)-1-[2-(2,2,2-trifluoroethoxy)ethyl]-1H-pyrazolo[4,3-d]pyrimidine-3-carboxylic acid], for which the IC50 (read-out: IC50) was found to be 7.78 nM.

Regarding `CCOCCn1nc(C(=O)O)c2nc(N(C)C(C)C)nc(Nc3cccc(OC)n3)c21` [Example 84], the IC50 (read-out: IC50) came out at 2.37 nM.

For `CCOCCn1nc(C(=O)O)c2nc(N(C)C(C)C)nc(Nc3ccccc3F)c21` [Example 104], the IC50 (read-out: IC50) was determined as 9.69 nM.

Turning to `CCOCCn1nc(C(=O)OCCN(C)C)c2nc(N(C)C(C)C)nc(Nc3cc(C)ccn3)c21` [Example 147, 2-(Dimethylamino)ethyl 1-(2-ethoxyethyl)-5-[isopropyl(methyl)amino]-7-[(4-methylpyridin-2-yl)amino]-1H-pyrazolo[4,3-d]pyrimidine-3-carboxylate], the IC50 (read-out: IC50) stood at 0.141 nM.

Consider `CCOCCn1nc(C(=O)O)c2nc(N(C)C(C)C)nc(Nc3cc(CC)ccn3)c21` [Example 36], for which the IC50 (read-out: IC50) worked out at 0.708 nM.

With `CCN(CC)c1nc(Nc2cc(C)ccn2)c2c(n1)c(C(=O)O)nn2CCOCC(F)(F)F` [Example 128, 5-(Diethylamino)-7-[(4-methylpyridin-2-yl)amino]-1-[2-(2,2,2-trifluoroethoxy)ethyl]-1H-pyrazolo[4,3-d]pyrimidine-3-carboxylic acid], for the setting “read-out: IC50”, the IC50 was found to be 3.94 nM.

`CCOCCn1nc(C(=O)O)c2nc(NC(C)C)nc(Nc3cc(C)ccn3)c21` [Example 54]: for the setting “read-out: IC50”, the IC50 turned out to be 2.03 nM.

Turning to `CCOCCn1nc(C(=O)O)c2nc(N(C)C)nc(Nc3ccc(C)cn3)c21` [Example 24], the IC50 (read-out: IC50) turned out to be 53.9 nM.

Regarding `CCOCCn1nc(C(=O)OC)c2nc(N(CC)CC)nc(Nc3ccc(F)c(C)c3)c21` [Example 117, Methyl 5-(diethylamino)-1-(2-ethoxyethyl)-7-[(4-fluoro-3-methylphenyl)amino]-1H-pyrazolo[4,3-d]pyrimidine-3-carboxylate], the IC50 (read-out: IC50) was determined as 0.025 nM.

On to `CCOCCn1nc(-c2nnn[nH]2)c2nc(N(C)C(C)C)nc(Nc3cc(C)ccn3)c21` [Example 79], for which the IC50 (read-out: IC50) stood at 0.332 nM.

Consider `COC(C)CCn1nc(C(=O)O)c2nc(N(C)C(C)C)nc(Nc3cc(C)ccn3)c21` (stereo not drawn) [Example 107], for which inhibition was half-maximal at 0.307 nM (IC50).

Take `CCOCCn1nc(C(=O)O)c2nc(N(C)CC)nc(Nc3cc(C)ccn3)c21` [Example 96]: under “read-out: IC50”, the IC50 stood at 3.65 nM.

Take `CCOCCn1nc(C(=O)O)c2nc(N(C)C(C)C)nc(Nc3cc(C)cc(C)n3)c21` [Example 26]: the IC50 (read-out: IC50) amounted to 1.64 nM.

As to `CCOCCn1nc(C(=O)O)c2nc(N(CC)CC)nc(Nc3cc(C)ccn3)c21` [Example 11], the IC50 (read-out: IC50) came out at 1.09 nM.

For the compound `CCOCCn1nc(C(=O)O)c2nc(N(C)C)nc(Nc3cccc(C)n3)c21` [Example 39], where the note is “read-out: IC50”, the IC50 was determined as 57.2 nM.

As for `CCOCCn1nc(-c2nc(=O)o[nH]2)c2nc(N(C)CC)nc(Nc3ccc(F)c(C)c3)c21` [Example 77], for the setting “read-out: IC50”, the IC50 stood at 0.162 nM.

Regarding `CCOCCn1nc(C(=O)OCC)c2nc(N3CCN[C@H](C)C3)nc(Nc3cc(C)ccn3)c21` [Example 8], where the note is “read-out: IC50”, the IC50 was 3.82 nM.

On to `CCN(C)c1nc(Nc2cc(C)ccn2)c2c(n1)c(C(=O)NS(C)(=O)=O)nn2CCO` [Example 185, 5-[Ethyl(methyl)amino]-1-(2-hydroxyethyl)-7-[(4-methylpyridin-2-yl)amino]-N-(methylsulfonyl)-1H-pyrazolo[4,3-d]pyrimidine-3-carboxamide], for which, for the setting “read-out: IC50”, the IC50 was 11.5 nM.

For the compound `CCOCCn1nc(-c2nnn[nH]2)c2nc(N(C)C)nc(Nc3cc(C)ccn3)c21` [Example 80], for the setting “read-out: IC50”, the IC50 was 2.88 nM.

On to `CCOCCn1nc(C(=O)OC)c2nc(N3C[C@@H]4C[C@H]3CN4)nc(Nc3cc(C)ccn3)c21` [Example 4], for which the concentration for half-maximal inhibition (IC50) (read-out: IC50) amounted to 2.62 nM.

Turning to `CO[C@H](C)Cn1nc(C(=O)O)c2nc(N(C)C(C)C)nc(Nc3cc(C)ccn3)c21` [Example 112, (2′R)-5-(N-Isopropyl-N-methylamino)-1-(2′-methoxypropyl)-7-(4-methylpyridin-2-ylamino)-1H-pyrazolo[4,3-d]pyrimidine-3-carboxylic acid], the IC50 (read-out: IC50) is 14.7 nM.

For `CCOCCn1nc(-c2nc(=O)o[nH]2)c2nc(N(CC)CC)nc(Nc3ccc(F)c(C)c3)c21` [Example 78], where the note is “read-out: IC50”, the IC50 came to 0.24 nM.

For the compound `CCOCCn1nc(C(=O)O)c2nc(N(C)C)nc(Nc3cc(CC)ccn3)c21` [Example 37], the IC50 (read-out: IC50) stood at 23.9 nM.

As to `CCOCCn1nc(C(=O)O)c2nc(N(C)C)nc(NC3CCOCC3)c21` [Example 82], the IC50 (read-out: IC50) came out at 55.1 nM.
